Earlier results in patent US11033606B2, “Composition comprising aflibercept, folinic acid, 5-fluorouracil (5-FU) and irinotecan (FOLFIRI)” (SANOFI, priority 2011, dated 2021).

How the values were obtained:
[1] = system: non-small cell lung cancer (NSCLC); settings: aflibercept added to docetaxel vs docetaxel plus placebo, second-line NSCLC
[2] = system: previously treated patients with metastatic colorectal cancer; settings: pre-treated patients with MCRC

Substance: aflibercept: fusion protein: VEGFR1 D2 Ig domain fused to VEGFR2 D3 Ig domain, fused to IgG1 Fc domain (SEQ ID No 1)
- Primary endpoint of improvement in overall survival [1]: did not meet the pre-specified criteria
- Tolerability [2]: well tolerated
